Assay results: PubChem BioAssay (NCI)
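Values below derive from 48-hour exposures of cells grown in 96-well plates, with endpoints linearly interpolated between the two concentrations bracketing the appropriate inhibition level. The concentration for full growth arrest is given as TGI.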

How the values were obtained:
Assay in all cases: growth of human tumour cells (NCI), 48 h
[1] = system: OVCAR-5 ovarian
[2] = system: UO-31 renal
[3] = system: A549 NSCLC
[4] = system: U251 CNS
[5] = system: PC-3 prostate
[6] = system: MDA-MB-231 breast
[7] = system: NCI-H522 lung
[8] = system: DU-145 prostate
[9] = system: CCRF-CEM leukemia
[10] = system: A498 renal
[11] = system: SF-539 CNS
[12] = system: UACC-62 melanoma
[13] = system: HS 578T breast
[14] = system: HCT-116 colon
[15] = system: SNB-19 CNS
[16] = system: RXF 393 renal
[17] = system: IGROV1 ovarian
[18] = system: NCI-H460 lung
[19] = system: 786-0 renal
[20] = system: UACC-257 melanoma
[21] = system: HOP-92 NSCLC
[22] = system: HL-60(TB) leukemia
[23] = system: SNB-75 CNS
[24] = system: SK-OV-3 ovarian
[25] = system: NCI/ADR-RES ovarian
[26] = system: OVCAR-4 ovarian
[27] = system: SR leukemia
[28] = system: OVCAR-3 ovarian
[29] = system: COLO 205 colon
[30] = system: HCT-15 colon
[31] = system: HT29 colon
[32] = system: KM12 colon
[33] = system: T-47D breast
[34] = system: NCI-H226 lung
[35] = system: HOP-62 NSCLC
[36] = system: ACHN renal
[37] = system: MCF7 breast
[38] = system: LOX IMVI melanoma
[39] = system: MALME-3M melanoma
[40] = system: SF-295 CNS
[41] = system: SK-MEL-5 melanoma
[42] = system: MDA-N
[43] = system: MOLT-4 leukemia
[44] = system: CAKI-1 renal
[45] = system: NCI-H23 lung
[46] = system: K-562 leukemia
[47] = system: MDA-MB-435
[48] = system: SK-MEL-28 melanoma
[49] = system: SF-268 CNS
[50] = system: SN12C renal
[51] = system: RPMI-8226 leukemia
[52] = system: HCC-2998 colon
[53] = system: OVCAR-8 ovarian
[54] = system: TK-10 renal
[55] = system: EKVX NSCLC
[56] = system: BT-549 breast
[57] = system: M14 melanoma
[58] = system: SW-620 colon
[59] = system: SK-MEL-2 melanoma

Question: With `CC(C)C(OC(=O)c1ccc(NCC2=CC(=O)C=CC2=O)cc1)C(C)C` as the compound, how does the TGI [1] read?
Answer: 36.4 µM

Question: And the TGI [2]?
Answer: 4.74 µM

Question: And the TGI [3]?
Answer: > 73.1 µM

Question: And the TGI [4]?
Answer: 13.5 µM

Question: And the TGI [5]?
Answer: 29.9 µM

Question: And the TGI [6]?
Answer: 31.8 µM

Question: What about the TGI [7] of the same compound?
Answer: 2.85 µM

Question: What about the TGI [8] of the same compound?
Answer: 65.5 µM

Question: And the TGI [9]?
Answer: 2.36 µM

Question: What about the TGI [10] of the same compound?
Answer: 31.9 µM

Question: What about the TGI [11] of the same compound?
Answer: 4.1 µM

Question: What about the TGI [12] of the same compound?
Answer: 20.3 µM

Question: What about the TGI [13] of the same compound?
Answer: 16.7 µM

Question: And the TGI [14]?
Answer: 24.6 µM

Question: And the TGI [15]?
Answer: 53.5 µM

Question: And the TGI [16]?
Answer: 3.67 µM

Question: What about the TGI [17] of the same compound?
Answer: 5.14 µM

Question: What about the TGI [18] of the same compound?
Answer: 32.6 µM

Question: What about the TGI [19] of the same compound?
Answer: 22.8 µM

Question: What about the TGI [20] of the same compound?
Answer: 25.9 µM

Question: What about the TGI [21] of the same compound?
Answer: 4.67 µM

Question: And the TGI [22]?
Answer: 3.96 µM

Question: And the TGI [23]?
Answer: 17.2 µM

Question: What about the TGI [24] of the same compound?
Answer: 42.1 µM

Question: And the TGI [25]?
Answer: 19.8 µM

Question: And the TGI [26]?
Answer: 11.4 µM

Question: And the TGI [27]?
Answer: 11.9 µM

Question: And the TGI [28]?
Answer: 23.4 µM

Question: And the TGI [29]?
Answer: 9.84 µM

Question: And the TGI [30]?
Answer: 10.4 µM

Question: And the TGI [31]?
Answer: 26.3 µM

Question: And the TGI [32]?
Answer: 30.5 µM

Question: And the TGI [33]?
Answer: 7.45 µM

Question: What about the TGI [34] of the same compound?
Answer: 11.7 µM

Question: What about the TGI [35] of the same compound?
Answer: 48.3 µM

Question: And the TGI [36]?
Answer: 21.2 µM

Question: And the TGI [37]?
Answer: 22.5 µM

Question: What about the TGI [38] of the same compound?
Answer: 18 µM

Question: And the TGI [39]?
Answer: 25.1 µM

Question: What about the TGI [40] of the same compound?
Answer: 29.4 µM

Question: What about the TGI [41] of the same compound?
Answer: 24.5 µM

Question: What about the TGI [42] of the same compound?
Answer: 21.5 µM

Question: And the TGI [43]?
Answer: 7.12 µM

Question: And the TGI [44]?
Answer: 3.02 µM

Question: And the TGI [45]?
Answer: 20.2 µM

Question: What about the TGI [46] of the same compound?
Answer: 12.6 µM

Question: What about the TGI [47] of the same compound?
Answer: 17.9 µM

Question: What about the TGI [48] of the same compound?
Answer: 15 µM

Question: And the TGI [49]?
Answer: 31.9 µM

Question: What about the TGI [50] of the same compound?
Answer: 35.8 µM

Question: What about the TGI [51] of the same compound?
Answer: > 28.2 µM

Question: What about the TGI [52] of the same compound?
Answer: 27.9 µM

Question: And the TGI [53]?
Answer: 12.9 µM

Question: And the TGI [54]?
Answer: 14.4 µM

Question: And the TGI [55]?
Answer: 29.1 µM

Question: What about the TGI [56] of the same compound?
Answer: 15.1 µM

Question: What about the TGI [57] of the same compound?
Answer: 19.7 µM

Question: And the TGI [58]?
Answer: 27.4 µM

Question: What about the TGI [59] of the same compound?
Answer: 27.3 µM
